# What was measured:
# H4 cells = experiment: TNFα-induced IL-8 production in H4 cells; type: cell-based, human; conditions: H4, 24 h pretreatment, TNF-α 1 μg/L for 24 h
# Experimental: EPA and DHA were used as n-3 PUFA and linoleic acid (LA, 18:2 n-6) as n-6 PUFA. The H4 and Caco-2 cells were pretreated with different doses of EPA, DHA and LA separately and in different combinations for 24 hours. Then TNF-α (1 μg/L for H4, 50 μg/L for Caco-2 cells) was added to cell culture medium and the cells were incubated for another 24 hours. The lower dose used in the H4 cell line reflects their exquisite sensitivity to inflammatory stimuli.
# The effects of different doses of fatty acids on TNFα-induced IL-8 production were evaluated and are seen in FIGS. 2A-B.
# Caco-2 cells = experiment: Poly (I:C) induced IL-8 production in differentiated Caco-2 cells (ELISA); type: cell-based, human
# Experimental: In order to determine whether DHA has an effect on inducers of inflammation other than TNFα, stimulation of another Toll-like receptor was evaluated. Polyriboinosinic polyribocytidylic acid [poly(I:C)] is a synthetic double-stranded RNA that is used experimentally to model viral infections. It has recently been identified as one of the critical stimuli for toll like receptor 3 (TLR3). The effects of n-3 PUFA on viral induced inflammation in intestinal epithelia have not been reported.
# Docosahexaenoic acid (DHA, 22:6 n-3) was used as n-3 PUFA and linoleic acid (LA, 18:2 n-6) as n-6 PUFA. Differentiated Caco-2 cells were pretreated with various doses of DHA or LA for 24 hours. The cells were then treated with poly (I: C) 50 ug/ml for another 24 hours. The culture medium was collected to measure the IL-8 production by ELISA. The first experiment determined the effect of Poly (I: C) on stimulation of IL-8, a major pro-inflammatory chemokine. Poly (I:C) increased IL-8 production by 10 fold.
# IEC-6 = experiment: Proliferation of rat intestinal crypt cells (IEC-6) in the absence of GLN; type: cell-based; conditions: GLN synthetase inhibited cells, all treatment doses
# Experimental: Studies were conducted to evaluate whether glutamate, a mixture of nucleotide monophosphates, arginine, or glucosamine could support proliferation of rat intestinal crypt cells (IEC-6) in the absence of GLN.
# myeloperoxidase (MPO) = experiment: Intestinal myeloperoxidase activity in gastrostomy fed, LPS treated rats; type: in vivo, rat
# Description: An approximate 6-fold elevation of intestinal myeloperoxidase (MPO) activity in the gastrostomy fed, LPS treated rats was decreased by GLN and Glu by 92% and 54%, respectively.
# CINC peptide = CINC peptide in gastrostomy fed (pup-in-a-cup), LPS treated rat pups; type: in vivo; conditions: for decrease of intestinal CINC peptide: intestine
# Description: Using the “pup-in-a-cup” rat model, protein deprivation and supplementation with GLN or GLU in the developing rat small intestine were examined. Four groups of 6-7 d old pups were fed via a gastrostomy tube providing 100% or 25% protein (relative to mother fed rats) rat milk substitute (RMS) with and without additional GLN or glutamate (GLU) for 6 d. Pups receiving the 100% protein RMS experienced better growth than the 3 groups of pups receiving the 25% protein RMS+/−GLN/GLU supplementation.
# (§1) Cytokine induced neutrophil chemoattractant (CINC) is a rodent chemokine that performs neutrophil chemoattractant functions similar to IL-8 in the human. Large quantities of this proinflammatory mediator can be detrimental.
# Intestinal CINC peptide in the LPS treated pups provided 100% and 25% protein was elevated about 13 fold compared to the mother reared pups. GLN and GlU decreased intestinal CINC peptide by 73 and 80%, respectively.
# CINC mRNA = CINC mRNA in small intestine by RT-PCR, protein deprived LPS treated rat pups; type: in vivo; conditions: 25% protein-fed, densitometry
# Experimental: as §1, with “detrimental. […] To clarify the effects of diets on the CINC mRNA in small intestine, RT-PCR was performed.” for “detrimental.”
# [1] = system: developing rat small intestine; experiment: Pup-in-a-cup rat model: growth, villus size and tight junction proteins under protein deprivation; type: in vivo; conditions: for villus height and area: 6-7 d old pups fed rat milk substitute for 6 d; for growth of pups: 6-7 d old pups fed rat milk substitute via gastrostomy tube for 6 d
# Description: Using the “pup-in-a-cup” rat model, protein deprivation and supplementation with GLN or GLU in the developing rat small intestine were examined. Four groups of 6-7 d old pups were fed via a gastrostomy tube providing 100% or 25% protein (relative to mother fed rats) rat milk substitute (RMS) with and without additional GLN or glutamate (GLU) for 6 d. […] Villus size is a major component of absorptive capability. […] The tight junction proteins play an integral role in paracellular permeability of the intestinal barrier, and two of these, claudin and occludin were evaluated using Western blotting.
# BBDP rats = experiment: Mortality due to diabetes in BBDP rats; type: in vivo, rat
molecule,measurement,setting,value
"CCCCC/C=C\C/C=C\CCCCCCCC(=O)O [LA, linoleic acid]",effect on TNF-α induced IL-8 production,H4 cells,greater inflammatory effects on IL-8 production in H4 than in Caco-2 cells
same,poly (I:C)-induced IL-8 production,"Caco-2 cells; doses of 50 and 100 μM, 24 h pretreatment",did not significantly reduce IL-8 production
"CC/C=C\C/C=C\C/C=C\C/C=C\C/C=C\C/C=C\CCC(=O)O [DHA, docosahexaenoic acid]",decrease of poly (I:C)-induced IL-8 production,"Caco-2 cells; 100 μM, 24 h pretreatment, poly (I:C) 50 ug/ml 24 h",75%
Polyriboinosinic polyribocytidylic acid [Poly (I:C)],increase of IL-8 production,"Caco-2 cells; poly (I:C) 50 ug/ml, 24 hours",10 fold
N[C@H]1C(O)O[C@H](CO)[C@@H](O)[C@@H]1O (some centres unmarked) [glucosamine],proliferation,IEC-6,decrease in proliferation compared with cells treated with GLN
"NC(=O)CC[C@H](N)C(=O)O [GLN, glutamine]",decrease of intestinal myeloperoxidase (MPO) activity,myeloperoxidase (MPO),92%
same,decrease of intestinal CINC peptide,CINC peptide,73%
same,plasma CINC peptide,CINC peptide,decreased plasma CINC peptide
same,CINC mRNA expression in small intestine,CINC mRNA,decreased CINC mRNA to a level similar to mother-fed animals
same,villus height and area,[1],did not differ
same,growth of pups,[1],neither GLN nor GLU alone can rescue the effects of protein deprivation
CCCC(=O)[O-].[Na+] [NaB],mortality due to diabetes,BBDP rats,decrease mortality due to diabetes
"N[C@@H](CCC(=O)O)C(=O)O [Glu, glutamate]",decrease of intestinal myeloperoxidase (MPO) activity,myeloperoxidase (MPO),54%
same,decrease of intestinal CINC peptide,CINC peptide,80%
same,plasma CINC peptide,CINC peptide,but not Glu decreased plasma CINC peptide
same,CINC mRNA expression in small intestine,CINC mRNA,did not show the same effect as GLN
same,proliferation,IEC-6,decrease in proliferation compared with cells treated with GLN
same,villus height and area,[1],did not differ
same,growth of pups,[1],neither GLN nor GLU alone can rescue the effects of protein deprivation
N=C(N)NCCC[C@H](N)C(=O)O [arginine],proliferation,IEC-6,decrease in proliferation compared with cells treated with GLN

# Source: US9107894B2, “Formulation to improve gastrointestinal function” (University of Florida Research Foundation, Inc., priority 2007, dated 2015)
